From a melting point compilation (Tetko et al.; mined from patent text by program, amines drawn as free bases though some values may be those of a salt)

Row | SMILES | melting point
1 | O=C(c1ccc(-c2cnc3c(c2)N(Cc2c(Cl)cccc2Cl)C(=O)CN3)cc1)N1CCC(N2CCCC2)CC1 | 199 °C
2 | Cc1cc2c(cc1Br)C(=O)CC(C)(C)O2 | 95 to 96 °C
3 | CNc1c(F)cc2c(=O)c(C(=O)O)cn(-c3cc(N)c(F)cc3F)c2c1C | 225 to 228 °C
4 | CC1CCCN1c1ccccc1NC(N)=S (stereo not drawn) | 145 to 148 °C
5 | O=C1C(=Cc2ccccc2)N2CCC1C2 (stereo not drawn) | 61 to 63 °C
6 | Clc1ccc(-c2cc(Cl)c3ccccc3n2)cc1Cl | 138 to 140 °C
7 | CN(Cc1ccccc1C(F)(F)F)C1CCN(c2ccc(OC[C@@]3(C)Cn4cc([N+](=O)[O-])nc4O3)cc2)CC1 | 190 °C
8 | Cc1cc(Cl)cc(Cl)c1S(=O)(=O)Nc1nc(CC(=O)N2CCOCC2)c(C)s1 | 186 to 187 °C
9 | CCOC(=O)c1cn(-c2c(F)cc(F)c([N+](=O)[O-])c2F)c2c(Cl)c(F)c(F)cc2c1=O | 167 to 169 °C
10 | Nc1ccc2nccnc2c1Br | 155 to 156 °C
11 | CCOC(=O)NC(C(=O)OC)=C1CN=C(c2ccccc2F)c2cc(Cl)ccc2N1 | 188 to 191 °C
12 | CN(c1cccc(-c2ccnc3c([N+](=O)[O-])cnn23)c1)S(=O)(=O)c1ccccc1 | 177 to 179 °C
13 | CC(=O)Nc1ccc2c(c1)N(C1CCN(CCc3ccc(F)cc3)CC1)CC2 | 148 to 150 °C
14 | CCCCCC/C=C/CCCCCCCC(=O)Nc1nc(CC(=O)O)cs1 | 117 to 118 °C
15 | CN(C(=O)c1ccc2nsnc2c1)C1CCOCC1 | 106 to 108 °C
16 | CN1CCN(S(=O)(=O)c2ccc([C@@H](CC3CCCC3)C(=O)O)cc2)CC1 | 202 to 203 °C
17 | Oc1cnn(-c2ccc(Cl)cc2Cl)c1 | 148 to 149 °C
18 | CCOC(=O)c1nocc1O | 59 to 60 °C

Row | SMILES | melting point
19 | CC(=NO)c1ccnc(C)c1 | 151 to 152 °C
20 | CCOC(=O)c1c(C)nsc1NC(=O)NC | 187 to 189 °C
21 | C=C1CSC2C(NC(=O)OC(C)(C)C)C(=O)N2C1C(=O)OC(c1ccccc1)c1ccccc1 (stereo not drawn) | 135 to 137 °C
22 | CCCCCCCCCCCCCCCCCC1OCC(COC(O)CCC)O1 (stereo not drawn) | 34 to 44 °C
23 | O=C1CCOc2c1ccc(O)c2CCCc1ccccc1 | 110 to 112 °C
24 | CCOC(=O)N1CCN(c2nnc(N)[nH]2)CC1 | 196 to 198 °C
25 | CC(=O)NCCn1nnnc1S | 138 to 140 °C
26 | O=[N+]([O-])C=C1CN=C(c2ccccc2)c2cc(Cl)ccc2N1 | 184 to 186 °C
27 | O=C(O)Cc1sccc1NC(=O)C(=O)NC(=O)c1ccco1 | 169 °C
28 | CCCCc1nccc2ccc(C(=O)N[C@@H](Cc3cc(F)cc(F)c3)[C@H](O)CNCc3cccc(CC)c3)cc12 | 109 to 110 °C
29 | COC(=O)c1c2n(c(C)cc1=O)CCCC2 | 169 to 172 °C
30 | COC(=O)CC(Cc1ccccc1)C(=O)N[C@@H](Cc1ccccc1)C(=O)O (stereo partly drawn) | 100 to 104 °C
31 | O=C(c1ccccc1)N1CCC(O)(c2ccccc2Cc2ccccc2)C1 (stereo not drawn) | 113 to 116 °C
32 | CCNC(=S)N(C)c1cn(-c2cccnc2)nc1Cl | 160 to 162 °C
33 | Cc1c(Br)c(N2CC[C@H](N(C)C)C2)c2oc(C3CC3)nc2c1C#N | 82 to 86 °C
34 | CSc1ccc2ccc(C(=O)O)cc2c1 | 217 °C
35 | CC(=O)Oc1cccc(C(=O)O)c1C | 147 to 148 °C
36 | Nc1ccc2nc(-c3ccc4c(c3)OCO4)ncc2c1 | 191 to 192 °C

The next lines start with the values.

Row | melting point | SMILES
37 | 81 to 82 °C | CCN1CCCC1CNc1ccc(-c2ccnc(Nc3cc(OC)c(OC)c(OC)c3)n2)cn1 (stereo not drawn)
38 | 127 to 129 °C | CCOC(=O)c1sc2cc(Cn3ccnc3)ccc2c1Cl
39 | 213 to 214 °C | COc1ccc(-c2c(C)c3ccc(O)cc3oc2=O)c(O)c1
40 | 240 to 242 °C | Cc1cc(=O)c(OCC(=O)O)cn1C
41 | 222 to 224 °C | N#Cc1ccc(-c2nc(N3C(=O)OCC34CC4)sc2F)cc1
42 | 128 to 130 °C | COC1C(OC(=O)c2ccccc2)C(COC(=O)c2ccccc2)OC1n1cc(C)c(=O)[nH]c1=O (stereo not drawn)
43 | 187 to 189 °C | Cc1ccc(=O)n(-c2cc(-c3ccnc(Nc4cccc(Cl)c4)n3)ccn2)n1
44 | 69 to 70 °C | COC(=O)c1cccnc1SCc1cccc(OC)c1
45 | 54 to 57 °C | CCOc1ccc(CCC=[N+]([O-])C(C)(C)C)cc1
46 | > 300 °C | N#Cc1ccc2[nH]c(C(N)=O)cc2c1
47 | > 280 °C | CCOC(=O)c1ccc(-c2[nH]nc3c2C(=O)c2c(NC(N)=O)cccc2-3)s1
48 | 94 to 95 °C | COC(=O)COc1c(C)cc(SCc2ccc(-c3ccc(C(F)(F)F)cn3)cc2)c2c1CCO2
49 | 188 to 190 °C | COC(=O)c1cc2nnn(-c3ccccc3)c2nc1OCc1ncnn1C
50 | 90 to 92 °C | Cc1c(O[Si](C)(C)C(C)(C)C)cc(O[Si](C)(C)C(C)(C)C)c(C)c1C(=O)OCC(Cl)(Cl)Cl
51 | 308 to 310 °C | CCN(CC)c1nc2[nH]c3c(c(=O)n2n1)SCCC3
52 | 118 to 120 °C | CCc1ccccc1-c1nc(-c2ccc(Cl)cc2)n[nH]1
53 | 178 °C | CC1(C)Oc2ccc(C#N)cc2C(n2ccccc2=O)C1=O (stereo not drawn)
54 | 150 °C | O=C(O)COc1cc(F)ccc1C(=S)NCc1nc2c(F)c(F)cc(F)c2s1
55 | 159 to 161 °C | CCCCS(=O)(=O)NC1Cc2ccc(C3=NNC(=O)CC3(C)C)cc2C1 (stereo not drawn)

Row | melting point | SMILES
56 | 199 to 201 °C | CC(=O)Nc1cccc2c(=O)n(C)c3ccccc3c(=O)c12
57 | 387 to 392 °C | O=C(O)c1ccc2nc3sc(-c4ccccc4)cc3c(=O)n2c1
58 | 198 to 201 °C | CCn1c(=O)c2[nH]c(C(C)C)nc2n(Cc2ccc(OC)c(OC)c2)c1=O
59 | > 350 °C | O=c1[nH]c(Nc2ccccc2)nc2c1ncn2CCCCO
60 | 237 to 240 °C | COc1nc(Nc2ccc(F)cc2F)c(C(=O)O)cc1F
61 | 166 to 169 °C | CCOS(=O)(=O)c1nc2nc(C)cc(Cl)n2n1
62 | 189 to 191 °C | COc1cc(C(=O)N(C(C)C)C2CCCCC2)ccc1Cn1cnc2ncccc21
63 | 106 to 107 °C | COc1ccc(C2(C#Cc3ccc(C#N)s3)CCC(=O)CC2)cc1OC1CCCC1
64 | 86 to 92 °C | CCCN(CCCNc1ncc(Cc2ccc3c(c2)OCO3)c(=O)[nH]1)c1ccccn1
65 | 31 to 36 °C | COCC1=C(C)C(=O)C(OC)=C(OC)C1=O
66 | 119 to 121 °C | CCOC(=O)c1c(-c2ccccc2)c2c3ccccc3ccn2c1C
67 | 159 °C | CCOC(=O)Cc1c(C(=O)OCC)cnc2c(NC(=O)c3c(Cl)cccc3Cl)cccc12
68 | 114 to 118 °C | CC(C)CNc1c([N+](=O)[O-])cnc2ccccc12
69 | 174 to 175 °C | CC(=NOCC(=O)O)c1ccc(NS(C)(=O)=O)c(Oc2ccc(F)cc2F)c1
70 | 146 to 147 °C | COc1ccc(OC)c2c1C(=O)C=C(SCCCCCCCCCCC(=O)O)C2=O
71 | 213 to 214 °C | CC(CO)CCn1c(C(=O)NCc2cc(C(F)(F)F)cc(C(F)(F)F)c2)c(-c2ccccc2)c2cccnc2c1=O (racemic)
72 | 111 to 112 °C | CCOC(=O)CCC(=O)N[C@@H](CC(C)C)C(=O)N[C@@H](C(C)C)[C@@H](O)c1c(-c2ccccc2)c1=O
73 | 202 to 204 °C | COCc1nc2c(N)nc3ccccc3c2n1Cc1ccccc1
